Test system: HUVEC/MSC spheroids viability
Assay: Human HUVEC/MSC cell line growth inhibition [KRAS2];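 as to viability, T/C: percent of DMSO vehicle control luminescence so 100% = untreated viability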
Conditions: for IC50: curve of first compound; for viability, T/C: stronger effect = lower value
How it was run: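 Spheroids of pooled-donor HUVEC and hMSC (passage ≤5) without tumour cells were treated with KRAS-pathway inhibitors alone and combined with targeted agents. Top concentration was at or near clinical Cmax, or 10 microM when Cmax was unknown, descending in half-log steps.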

Question: For `Cn1ncnc1[C@H]1c2n[nH]c(=O)c3cc(F)cc(c23)N[C@@H]1c1ccc(F)cc1` + CNCc1ccccc1-c1csc(C(C)Nc2nc(C)nc3cc(OC)c(OC)cc23)c1, which IC50 (second compound 0.0316 µM) is on record?
Answer: > 100 nM

Question: And the IC50 (second compound 0.1 µM)?
Answer: > 100 nM

Question: What about the IC50 (second compound 0.316 µM) of the same compound?
Answer: > 100 nM

Question: And the IC50 (second compound 1 µM)?
Answer: > 100 nM

Question: And the IC50 (second compound 3.16 µM)?
Answer: > 100 nM

Question: What about the IC50 (second compound 10 µM) of the same compound?
Answer: < 0.316 nM

Question: What about the viability, T/C (second compound 0.0316 µM, first compound 0.000316 µM) of the same compound?
Answer: 97.8%

Question: And the viability, T/C (second compound 0.0316 µM, first compound 0.001 µM)?
Answer: 85.9%

Question: And the viability, T/C (second compound 0.0316 µM, first compound 0.00316 µM)?
Answer: 81.2%

Question: What about the viability, T/C (second compound 0.0316 µM, first compound 0.01 µM) of the same compound?
Answer: 73.2%

Question: And the viability, T/C (second compound 0.0316 µM, first compound 0.0316 µM)?
Answer: 76.8%

Question: What about the viability, T/C (second compound 0.0316 µM, first compound 0.1 µM) of the same compound?
Answer: 78.4%

Question: What about the viability, T/C (second compound 0.1 µM, first compound 0.000316 µM) of the same compound?
Answer: 93.3%

Question: What about the viability, T/C (second compound 0.1 µM, first compound 0.001 µM) of the same compound?
Answer: 90.2%

Question: What about the viability, T/C (second compound 0.1 µM, first compound 0.00316 µM) of the same compound?
Answer: 90.2%

Question: And the viability, T/C (second compound 0.1 µM, first compound 0.01 µM)?
Answer: 70.6%

Question: What about the viability, T/C (second compound 0.1 µM, first compound 0.0316 µM) of the same compound?
Answer: 81.8%

Question: What about the viability, T/C (second compound 0.1 µM, first compound 0.1 µM) of the same compound?
Answer: 79.7%

Question: And the viability, T/C (second compound 0.316 µM, first compound 0.000316 µM)?
Answer: 65.4%

Question: What about the viability, T/C (second compound 0.316 µM, first compound 0.001 µM) of the same compound?
Answer: 90.5%

Question: What about the viability, T/C (second compound 0.316 µM, first compound 0.00316 µM) of the same compound?
Answer: 79.9%

Question: What about the viability, T/C (second compound 0.316 µM, first compound 0.01 µM) of the same compound?
Answer: 76.5%

Question: And the viability, T/C (second compound 0.316 µM, first compound 0.0316 µM)?
Answer: 76.2%

Question: And the viability, T/C (second compound 0.316 µM, first compound 0.1 µM)?
Answer: 69.2%

Question: And the viability, T/C (second compound 1 µM, first compound 0.000316 µM)?
Answer: 67.3%

Question: What about the viability, T/C (second compound 1 µM, first compound 0.001 µM) of the same compound?
Answer: 76.9%

Question: What about the viability, T/C (second compound 1 µM, first compound 0.00316 µM) of the same compound?
Answer: 67%

Question: And the viability, T/C (second compound 1 µM, first compound 0.01 µM)?
Answer: 75.3%

Question: What about the viability, T/C (second compound 1 µM, first compound 0.0316 µM) of the same compound?
Answer: 75.9%

Question: And the viability, T/C (second compound 1 µM, first compound 0.1 µM)?
Answer: 72%

Question: What about the viability, T/C (second compound 3.16 µM, first compound 0.000316 µM) of the same compound?
Answer: 89%

Question: What about the viability, T/C (second compound 3.16 µM, first compound 0.001 µM) of the same compound?
Answer: 86.8%

Question: And the viability, T/C (second compound 3.16 µM, first compound 0.00316 µM)?
Answer: 94.7%

Question: What about the viability, T/C (second compound 3.16 µM, first compound 0.01 µM) of the same compound?
Answer: 80.7%

Question: And the viability, T/C (second compound 3.16 µM, first compound 0.0316 µM)?
Answer: 77.8%

Question: What about the viability, T/C (second compound 3.16 µM, first compound 0.1 µM) of the same compound?
Answer: 75%

Question: And the viability, T/C (second compound 10 µM, first compound 0.000316 µM)?
Answer: 0.29%

Question: And the viability, T/C (second compound 10 µM, first compound 0.001 µM)?
Answer: 0.28%

Question: And the viability, T/C (second compound 10 µM, first compound 0.00316 µM)?
Answer: 0.32%

Question: What about the viability, T/C (second compound 10 µM, first compound 0.01 µM) of the same compound?
Answer: 0.29%

Question: What about the viability, T/C (second compound 10 µM, first compound 0.0316 µM) of the same compound?
Answer: 0.31%

Question: And the viability, T/C (second compound 10 µM, first compound 0.1 µM)?
Answer: 0.28%

— PubChem BioAssay AID2060912 (Molecular Pharmacology Branch, DTP, NCI, 2025)
